Results: US20260022118A1, “HETEROCYCLIC COMPOUNDS AS NRAS INHIBITORS” (Board of Regents, The University of Texas System, priority 2023, published 2026)

Experiments:
NRAS G12D C118S = NRAS G12D C118S (Homo sapiens (Human), UniProt P01111, C118S/G12D); experiment: NRas G12D Surface Plasmon Resonance (SPR) binding assay; conditions: Avi-tagged biotinylated NRAS G12D C118S on streptavidin chip, 25° C., 1:1 kinetic or steady-state fit
Summary of the method: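 Biotinylated Avi-tagged NRAS G12D C118S was captured at about 600 RU on a streptavidin chip alongside a blank reference channel. Compounds were run as 10-point 1:3 dilution series in HBS-P+ pH 7.4 with 5 mM MgCl2 and 3% DMSO, using a 2–4% DMSO solvent correction. A control compound at 10 μM was injected periodically to check protein activity.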

[1] = tested on: THP-1 cells expressing G12D (NRAS G12D); experiment: Inhibition of NRAS G12D-mediated phosphorylation of ERK (AlphaLISA p-ERK1/2) in THP-1 cells; format: cell-based; conditions: Homo sapiens, THP-1, 2 h, 2 hours incubation, HBSS with 0% or 10% FBS, p-ERK1/2 (Thr202/Tyr204) AlphaLISA, read-out: pERK THP-1 IC50
Summary of the method: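 THP-1 cells expressing NRAS G12D, seeded in HBSS with 0% or 10% FBS, were exposed to test compound (1% DMSO final) for 2 h. p-ERK1/2 (Thr202/Tyr204) read by AlphaLISA SureFire Ultra. IC50 from curves normalized to no-inhibitor (100%) and 1 μM trametinib (0%) controls.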

Chain of NRAS G12D C118S (P01111 whole entry G12D/C118S): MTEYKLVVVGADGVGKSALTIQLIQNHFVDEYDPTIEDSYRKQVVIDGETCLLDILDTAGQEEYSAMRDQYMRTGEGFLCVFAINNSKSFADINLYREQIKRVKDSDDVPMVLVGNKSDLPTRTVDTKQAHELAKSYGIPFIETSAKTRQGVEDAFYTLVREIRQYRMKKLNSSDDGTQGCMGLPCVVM

| SMILES | Kd (NRAS G12D C118S) [nM] | IC50 [1] [nM] |
| --- | --- | --- |
| C#Cc1c(F)ccc2cc(O)cc(-c3nc(OC4CC4)c4c([C@H]5[C@@H]6CNC[C@@H]65)nn(C5CC5)c4c3F)c12 [Example 70, 4-(3-((1R,5S,6r)-3-azabicyclo[3.1.0]hexan-6-yl)-4-cyclopropoxy-1-cyclopropyl-7-fluoro-1H-pyrazolo[4,3-c]pyridin-6-yl)-5-ethynyl-6-fluoronaphthalen-2-ol] | 33.3 | 169 |
| C#Cc1c(F)ccc2cc(O)cc(-c3nc(CC)c4c([C@H]5[C@@H]6CNC[C@@H]65)nn(C5CC5)c4c3F)c12 [Example 72, 4-(3-((1R,5S,6r)-3-azabicyclo[3.1.0]hexan-6-yl)-1-cyclopropyl-4-ethyl-7-fluoro-1H-pyrazolo[4,3-c]pyridin-6-yl)-5-ethynyl-6-fluoronaphthalen-2-ol] | 0.594 | 24.4 |
| C#Cc1c(F)ccc2cc(O)cc(-c3nc(CC(C)C)c4c([C@H]5[C@@H]6CNC[C@@H]65)nn(C5CC5)c4c3F)c12 [Example 73, 4-(3-((1R,5S,6r)-3-azabicyclo[3.1.0]hexan-6-yl)-1-cyclopropyl-7-fluoro-4-isobutyl-1H-pyrazolo[4,3-c]pyridin-6-yl)-5-ethynyl-6-fluoronaphthalen-2-ol] | 212 | 1300 |
| C#Cc1c(F)ccc2cc(O)cc(-c3nc(C(C)C)c4c([C@H]5[C@@H]6CNC[C@@H]65)nn(C5CC5)c4c3F)c12 [Example 74, 4-(3-((1R,5S,6r)-3-azabicyclo[3.1.0]hexan-6-yl)-1-cyclopropyl-7-fluoro-4-isopropyl-1H-pyrazolo[4,3-c]pyridin-6-yl)-5-ethynyl-6-fluoronaphthalen-2-ol] | 0.141 | 9.56 |
| C#Cc1c(F)ccc2cc(O)cc(-c3nc(N(C)C(C)C)c4c([C@H]5[C@@H]6CNC[C@@H]65)nn(C5CC5)c4c3F)c12 [Example 75, 4-(3-((1R,5S,6r)-3-azabicyclo[3.1.0]hexan-6-yl)-1-cyclopropyl-7-fluoro-4-(isopropyl(methyl)amino)-1H-pyrazolo[4,3-c]pyridin-6-yl)-5-ethynyl-6-fluoronaphthalen-2-ol] | 25 | 248 |
| C#Cc1c(F)ccc2cc(O)cc(-c3nc(NC)c4c([C@H]5[C@@H]6CNC[C@@H]65)nn(C5CC5)c4c3F)c12 [Example 76, 4-(3-((1R,5S,6r)-3-azabicyclo[3.1.0]hexan-6-yl)-1-cyclopropyl-7-fluoro-4-(methylamino)-1H-pyrazolo[4,3-c]pyridin-6-yl)-5-ethynyl-6-fluoronaphthalen-2-ol] | 28.3 | 547 |
| C#Cc1c(F)ccc2cc(O)cc(-c3nc(NC(C)C)c4c([C@H]5[C@@H]6CNC[C@@H]65)nn(C5CC5)c4c3F)c12 [Example 77, 4-(3-((1R,5S,6r)-3-azabicyclo[3.1.0]hexan-6-yl)-1-cyclopropyl-7-fluoro-4-(isopropylamino)-1H-pyrazolo[4,3-c]pyridin-6-yl)-5-ethynyl-6-fluoronaphthalen-2-ol] | 17.9 | 258 |
| C#Cc1c(F)ccc2cc(O)cc(-c3nc(Nc4ccccc4)c4c([C@H]5[C@@H]6CNC[C@@H]65)nn(C5CC5)c4c3F)c12 [Example 83, 4-(3-((1R,5S,6r)-3-azabicyclo[3.1.0]hexan-6-yl)-1-cyclopropyl-7-fluoro-4-(phenylamino)-1H-pyrazolo[4,3-c]pyridin-6-yl)-5-ethynyl-6-fluoronaphthalen-2-ol] | 49.5 | 205 |
| C#Cc1c(F)ccc2cc(O)cc(-c3ncc4c(N5CC6CCC(C5)N6)cn(C5CC5)c4c3F)c12 [Example 85, 4-(3-(3,8-diazabicyclo[3.2.1]octan-3-yl)-1-cyclopropyl-7-fluoro-1H-pyrrolo[3,2-c]pyridin-6-yl)-5-ethynyl-6-fluoronaphthalen-2-ol] | 336 | 1710 |
| C#Cc1c(F)ccc2cc(O)cc(-c3ncc4c(N5C[C@@H]6CC[C@H]5CN6)cn(C5CC5)c4c3F)c12 [Example 86, 4-(3-((1S,4S)-2,5-diazabicyclo[2.2.2]octan-2-yl)-1-cyclopropyl-7-fluoro-1H-pyrrolo[3,2-c]pyridin-6-yl)-5-ethynyl-6-fluoronaphthalen-2-ol] | 151 | 767 |
| C#Cc1c(F)ccc2cc(N)cc(-c3nc(CC)c4c([C@H]5[C@@H]6CNC[C@@H]65)nn(C5CC5)c4c3F)c12 [Example 88, 4-(3-((1R,5S,6r)-3-azabicyclo[3.1.0]hexan-6-yl)-1-cyclopropyl-4-ethyl-7-fluoro-1H-pyrazolo[4,3-c]pyridin-6-yl)-5-ethynyl-6-fluoronaphthalen-2-amine] | 4.58 | 227 |
| C#Cc1c(F)ccc2cc(O)cc(-c3nc(CC)c4c(N5C[C@@H]6CC[C@H]5CN6)nn(C5CC5)c4c3F)c12 [Example 90, 4-(3-((1S,4S)-2,5-diazabicyclo[2.2.2]octan-2-yl)-1-cyclopropyl-4-ethyl-7-fluoro-1H-pyrazolo[4,3-c]pyridin-6-yl)-5-ethynyl-6-fluoronaphthalen-2-ol] | 107 | 888 |
| C#Cc1c(F)ccc2cc(O)cc(-c3nc(OC)c4c(N5C[C@@H]6CC[C@H]5CN6)nn(C5CC5)c4c3F)c12 [Example 91, 4-(3-((1S,4S)-2,5-diazabicyclo[2.2.2]octan-2-yl)-1-cyclopropyl-7-fluoro-4-methoxy-1H-pyrazolo[4,3-c]pyridin-6-yl)-5-ethynyl-6-fluoronaphthalen-2-ol] | 146 | 1650 |
| C#Cc1c(F)ccc2cc(O)cc(-c3ncc4c([C@H]5[C@@H]6CNC(C(=O)OC)[C@@H]65)nn(C)c4c3F)c12 (stereo partly drawn) [Example 96, methyl (1S,5R,6S)-6-(6-(8-ethynyl-7-fluoro-3-hydroxynaphthalen-1-yl)-7-fluoro-1-methyl-1H-pyrazolo[4,3-c]pyridin-3-yl)-3-azabicyclo[3.1.0]hexane-2-carboxylate] | 904 | 360 |
| C#Cc1c(F)ccc2cc(O)cc(-c3ncc4c([C@H]5[C@@H]6CNC(CO)[C@@H]65)nn(C)c4c3F)c12 (stereo partly drawn) [Example 97, 5-ethynyl-6-fluoro-4-(7-fluoro-3-((1S,5R,6S)-2-(hydroxymethyl)-3-azabicyclo[3.1.0]hexan-6-yl)-1-methyl-1H-pyrazolo[4,3-c]pyridin-6-yl)naphthalen-2-ol] | 190 | 2220 |
| C#Cc1c(F)ccc2cc(O)cc(-c3nc(OCC(C)C)c4c([C@H]5[C@@H]6CNC[C@@H]65)nn(C5CC5)c4c3F)c12 [Example 100, 4-(3-((1R,5S,6r)-3-azabicyclo[3.1.0]hexan-6-yl)-1-cyclopropyl-7-fluoro-4-isobutoxy-1H-pyrazolo[4,3-c]pyridin-6-yl)-5-ethynyl-6-fluoronaphthalen-2-ol] | 704 | 1760 |
| C#Cc1c(F)ccc2cc(O)cc(-c3ncc4c([C@H]5[C@@H]6CNC[C@@H]65)nn(CCCN(C)C)c4c3F)c12 [Example 102, 4-(3-((1R,5S,6r)-3-azabicyclo[3.1.0]hexan-6-yl)-1-(3-(dimethylamino)propyl)-7-fluoro-1H-pyrazolo[4,3-c]pyridin-6-yl)-5-ethynyl-6-fluoronaphthalen-2-ol] | 7600 | > 10000 |
| C#Cc1c(F)ccc2cc(O)cc(-c3ncc4c(C5[C@H]6CNC[C@@H]56)cn(CCO)c4c3F)c12 (stereo partly drawn) [Example 103, 4-(3-((1R,5S)-3-azabicyclo[3.1.0]hexan-6-yl)-7-fluoro-1-(2-hydroxyethyl)-1H-pyrrolo[3,2-c]pyridin-6-yl)-5-ethynyl-6-fluoronaphthalen-2-ol] | 488 | > 50000 |
| C#Cc1c(F)ccc2cc(O)cc(-c3ncc4c([C@H]5[C@@H]6CNC[C@@H]65)nn([C@@H]5C[C@@H]5C)c4c3F)c12 [Example 104, 4-(3-((1R,5S,6r)-3-azabicyclo[3.1.0]hexan-6-yl)-7-fluoro-1-((1R,2S)-2-methylcyclopropyl)-1H-pyrazolo[4,3-c]pyridin-6-yl)-5-ethynyl-6-fluoronaphthalen-2-ol] | 1170 | 12500 |
| C#Cc1c(F)ccc2cc(O)cc(-c3ncc4c(N5CC6CCC5CN6)nn(C5CC5)c4c3F)c12 (stereo not drawn) [Example 105, 4-(3-(2,5-diazabicyclo[2.2.2]octan-2-yl)-1-cyclopropyl-7-fluoro-1H-pyrazolo[4,3-c]pyridin-6-yl)-5-ethynyl-6-fluoronaphthalen-2-ol] | 18.5 | 515 |
| C#Cc1c(F)ccc2cc(O)cc(-c3ncc4c(N5C[C@@H]6CC[C@H]5CN6)nn(C5CC5)c4c3F)c12 [Example 106, 4-(3-((1S,4S)-2,5-diazabicyclo[2.2.2]octan-2-yl)-1-cyclopropyl-7-fluoro-1H-pyrazolo[4,3-c]pyridin-6-yl)-5-ethynyl-6-fluoronaphthalen-2-ol] | 9.39 | 163 |
